Measured values from patent publication US20250230154A1, “COMPOUND HAVING SHP2 PROTEIN DEGRADING ACTIVITY, AND MEDICAL USES THEREOF” (UBIX THERAPEUTICS, INC., priority 2021, published 2025).

Biological target: T1, SHP2 protein (Homo sapiens, UniProt Q06124)
T1 sequence (Q06124 1-593): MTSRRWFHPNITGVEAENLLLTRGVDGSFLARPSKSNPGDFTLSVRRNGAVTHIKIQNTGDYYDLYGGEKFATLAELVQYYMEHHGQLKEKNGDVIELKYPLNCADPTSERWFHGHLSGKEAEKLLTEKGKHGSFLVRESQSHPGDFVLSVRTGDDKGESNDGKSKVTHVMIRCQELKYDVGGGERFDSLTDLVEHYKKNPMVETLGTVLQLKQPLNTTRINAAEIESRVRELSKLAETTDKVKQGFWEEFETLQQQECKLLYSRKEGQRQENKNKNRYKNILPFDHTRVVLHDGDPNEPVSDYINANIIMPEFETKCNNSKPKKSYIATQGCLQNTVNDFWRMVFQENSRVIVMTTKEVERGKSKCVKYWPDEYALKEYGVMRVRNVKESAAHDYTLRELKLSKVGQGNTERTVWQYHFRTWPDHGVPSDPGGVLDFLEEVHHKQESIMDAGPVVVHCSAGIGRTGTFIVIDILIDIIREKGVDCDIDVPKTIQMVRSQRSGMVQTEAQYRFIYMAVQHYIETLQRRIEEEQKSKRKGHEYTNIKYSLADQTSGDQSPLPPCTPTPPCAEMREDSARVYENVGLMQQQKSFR
Assay: Measurement of SHP2 protein degradation in KYSE-520 cells (western blotting)
Assay type: cell-based
Set-up: endogenous in cells
Settings: 24 hours

| SHP2 degradation (%) 10 nM (10 nM) [%] | SMILES | SHP2 degradation (%) 100 nM [%] | SHP2 degradation (%) 1000 nM [%] |
| --- | --- | --- | --- |
| −9.0 | Cc1ncsc1-c1ccc(CNC(=O)[C@@H]2C[C@@H](O)CN2C(=O)[C@@H](NC(=O)C2(F)CC2)C(C)(C)C)c(OCCCCCCN2CCC(CCCC(=O)Nc3cccc(Sc4cnc(N5CCC(C)(CN)CC5)cn4)c3Cl)CC2)c1 [Example 18, (2S,4R)—N-(2-((6-(4-(4-((3-((5-(4-(aminomethyl)-4-methylpiperidin-1-yl)pyrazin-2-yl)thio)-2-chlorophenyl)amino)-4-oxobutyl)piperidin-1-yl)hexyl)oxy)-4-(4-methylthiazol-5-yl)benzyl)-1-((S)-2-(1-fluorocyclopropane-1-carboxamido)-3,3-dimethylbutanoyl)-4-hydroxypyrrolidine-2-carboxamide] | 56.9 | 91.8 |
| – | Cc1ncsc1-c1ccc(CNC(=O)[C@@H]2C[C@@H](O)CN2C(=O)[C@@H](NC(=O)C2(F)CC2)C(C)(C)C)c(OCCCC(=O)N2CCC(CCCC(=O)Nc3cccc(Sc4cnc(N5CCC(C)(CN)CC5)cn4)c3Cl)CC2)c1 [Example 25, (2S,4R)—N-(2-(4-(4-(4-((3-((5-(4-(aminomethyl)-4-methylpiperidin-1-yl)pyrazin-2-yl)thio)-2-chlorophenyl)amino)-4-oxobutyl)piperidin-1-yl)-4-oxobutoxy)-4-(4-methylthiazol-5-yl)benzyl)-1-((S)-2-(1-fluorocyclopropane-1-carboxamido)-3,3-dimethylbutanoyl)-4-hydroxypyrrolidine-2-carboxamide] | 61.8 | 94.7 |
